For one data set, the system named is NMDA receptor subtype. The note with it: known from WO 00/75109; cited from earlier work.
The next data set is described as follows: Solubility. The data set is classed as physicochemical. The settings on record: for Solubility at pH 7.4 relative to the parent compound, suggested/assumed from pH 4.0 data: pH 7.4, not measured directly.
The next data set can be described thus: Stability in solution. The data set is classed as physicochemical. The settings on record: pH 7.4, 24 hours.
Where [1] appears, read: pH 7, aqueous buffer, read-out: Solubility (μg/ml at pH 7).
[2] abbreviates: pH 4, aqueous buffer, read-out: Solubility (μg/ml at pH 4).

Converted amounts (≈) assume the structure as drawn. Where two headings read alike, the source gives them in different places. Where only a bound is given, the exact number is not on record here.

The values below come from patent US6407235B1, “Prodrug acid esters of [2-(4-benzyl-3-hydroxy-piperidin-1-yl)-ethansulfonyl]phenol” (Hoffmann-La Roche Inc., priority 2001, dated 2002).

On to `O=S(=O)(CCN1CC[C@H](Cc2ccccc2)[C@H](O)C1)c1ccc(O)cc1` [Compound of formula II, (3S,4S)-4-[2-(4-benzyl-3-hydroxy-piperidin-1-yl)-ethanesulfonyl]-phenol, reference compound], for which the “NMDA receptor subtype specific blocker” value in the data set with NMDA receptor subtype is “good NMDA receptor subtype specific blocker”. Further, the solubility was determined as 7750 µg/mL in the data set “Solubility” (aqueous buffer, pH 4.8 (printed in the cell of the pH 4 column), read-out: Solubility (μg/ml) at pH 4.8) and 47 µg/mL in the data set “Solubility” (setting [1]). In “Solubility” (physiological pH), the “Water solubility at physiological pH” value is on record as “limited water solubility”.
Turning to `O=C(O)CCC(=O)Oc1ccc(S(=O)(=O)CCN2CC[C@H](Cc3ccccc3)[C@H](O)C2)cc1` [Example 1, Succinic Acid Mono-{(3S,4S)-4-[2-(4-benzyl-3-hydroxy-piperidin-1-yl)-ethanesulfonyl]-phenyl}ester], the solubility in the data set “Solubility” (setting [2]) stood at 1800 µg/mL (≈ 3.78 mM); in “Solubility” (setting [1]), 7690 µg/mL (≈ 16.2 mM).
For `O=P(O)(O)Oc1ccc(S(=O)(=O)CCN2CC[C@H](Cc3ccccc3)[C@H](O)C2)cc1` [Example 2, Phosphoric Acid Mono-{(3S,4S)-4-[2-(4-benzyl-3-hydroxy-piperidin-1-yl)-ethanesulfonyl]-phenyl}ester], the solubility in the data set “Solubility” (setting [2]) was 594 µg/mL (≈ 1.3 mM); in “Solubility” (setting [1]), greater than 37600 µg/mL.
Take `O=C(Oc1ccc(S(=O)(=O)CCN2CC[C@H](Cc3ccccc3)[C@H](O)C2)cc1)c1cccc(CN2CCOCC2)c1` [Example 6, 3-Morpholin-4-ylmethyl-benzoic Acid (3S,4S)-4-[2-(4-benzyl-3-hydroxy-piperidin-1-yl)-ethanesulfonyl]-phenyl Ester]: the results for the solubility in the data set “Solubility” (setting [2]) and in “Solubility” (setting [1]) were 8500 µg/mL (≈ 14.7 mM) and 89 µg/mL (≈ 0.154 mM), respectively.
Regarding `NCc1ccc(C(=O)Oc2ccc(S(=O)(=O)CCN3CC[C@H](Cc4ccccc4)[C@H](O)C3)cc2)cc1` [Example 7, 4-Aminomethyl-benzoic Acid (3S,4S)-4-[2-(4-benzyl-3-hydroxy-piperidin-1-yl)-ethanesulfonyl]-phenyl Ester], in the data set “Stability in solution”, the “Stability at pH 7.4 over 24 hours” value is “unstable”. Moreover, the solubility in the data set “Solubility” (setting [2]) came out at 6710 µg/mL (≈ 13.2 mM). Further, in the data set “Solubility”, the “Solubility at pH 7.4 relative to the parent compound, suggested/assumed from pH 4.0 data” value is “higher solubility can be assumed”.
As to `CNCc1cccc(C(=O)Oc2ccc(S(=O)(=O)CCN3CC[C@H](Cc4ccccc4)[C@H](O)C3)cc2)c1` [Example 9, 3-Methylaminomethyl-benzoic Acid (3S,4S)-4-[2-(4-benzyl-3-hydroxy-piperidin-1-yl)-ethanesulfonyl]-phenyl Ester], in “Stability in solution”, the “Stability at pH 7.4 over 24 hours” value was “unstable”. In addition, the solubility in “Solubility” (setting [2]) was 86600 µg/mL (≈ 166 mM). Also, the “Solubility at pH 7.4 relative to the parent compound, suggested/assumed from pH 4.0 data” value in “Solubility” is reported as “higher solubility”.
The like results for `CNCc1ccc(C(=O)Oc2ccc(S(=O)(=O)CCN3CC[C@H](Cc4ccccc4)[C@H](O)C3)cc2)cc1` [Example 10, 4-Methylaminomethyl-benzoic Acid (3S,4S)-4-[2-(4-benzyl-3-hydroxy-piperidin-1-yl)-ethanesulfonyl]-phenyl Ester] were, in that order, “unstable”, 26100 µg/mL (≈ 49.9 mM) and “higher solubility”.
